Data from patent US20250177566A1, “USE OF CHEMICAL EPIGENETIC MODIFIERS TO MODULATE GENE EXPRESSION” (The University of North Carolina at Chapel Hill, priority 2022, published 2025).

Tests used:
Type in all cases: cell-based, human
CXCR4 [1] = assay: CXCR4 mRNA activation in HCT116 stably expressing dCas9 and MS2-FKBPx2 (WT-FKBP), qRT-PCR; conditions: FIG. 6, WT FKBP system, 48 hrs
CXCR4 [2] = assay: CXCR4 mRNA activation in HCT116 stably expressing dCas9 and MS2-FKBP*x2, qRT-PCR; conditions: for fold change, CXCR4 mRNA (CEM Treated vs Non-Treated): 48 hrs; for fold change, CXCR4 mRNA (CXCR4 gRNA vs NT gRNA): FIG. 3B; for fold change, CXCR4 mRNA (CXCR4 gRNA vs NT gRNA) / fold change, CXCR4 mRNA (washout vs AP1867 competition) / fold change, CXCR4 mRNA (Compare to 0 h): CEM203 50 nM; for fold change, CXCR4 mRNA (washout vs AP1867 competition): FIG. 3C; for fold change, CXCR4 mRNA (Compare to 0 h): FIG. 7A
Description: To further explore the activation potential of the SLF*-CEMa, their ability to target endogenous genes was evaluated (FIGS. 2A and 2B). Lentivirus was used to establish a stable HCT116 cell line expressing dCas9 and MS2-FKBP*x2 constructs, selecting for cells with antibiotic resistance. […] All CEMs were screened for their ability to activate the CXCR4 gene at 5 nM (FIG. 2C). RNA extraction and quantitative RT-PCR (qRT-PCR) were performed after 48 hours of CEM treatment.
To determine the optimal treatment concentration of the SLF*-CEMa molecules in this context, HCT116 cells were treated with 1 nM, 5 nM, 25 nM, and 50 nM of CEM203, CEM207, or CEM87. […] After 48 hours, RNA extraction followed by qRT-PCR was performed to evaluate the change in mRNA expression of CXCR4 (FIG. 2D). […] To directly compare this induced activation to other CRISPR-Cas9-based epigenetic activators, dCas9-VPR and dCas9-p300 constructs were virally infected into HCT116 cells and CXCR4 activation assessed in a similar fashion (FIGS. 2A and 2B).
To determine the time at which SLF*-CEMa most effectively induces gene activation, CXCR4 gene expression changes over time were investigated in dCas9 and MS2-FKBP*x2 stably infected HCT116 cells. Cells were treated with either vehicle, […] (FIG. 3A). RNA extraction and qRT-PCR were performed at 12, 24, 48, 72, and 96 hrs time points (FIG. 3B).
To investigate if endogenous gene activation triggered by the SLF*-CEMa compounds is also reversible, HCT116 cells were treated with CEM203 (50 nM) or CEM207 (25 nM) for 24 hours after transfecting CXCR4 gRNA, and then the CEMs were removed by media exchange at various time points. […] Likewise, it was investigated whether treatment with excess AP1867 could further reverse gene activation, potentially in a more robust fashion than with washout alone if there is any remaining intracellular SLF*-CEMa. To test this, after 24 hours of SLF*-CEMa treatment, a media exchange containing 20 μM AP1867 was performed (FIGS. 3C and 3D).
RNA extraction and qRT-PCR. All RNA extraction experiments were conducted in 12-well plate format. Culturing medium was removed, and cells were washed with 1×PBS, following with 0.05% trypsin to disassociate. After being quenched by medium and centrifuged, cells were washed with 1×PBS, and the RNA extraction was performed by using RNeasy Plus Mini kit (Qiagen, 74134). RT-qPCR was conducted by using RNA-to CT 1-step kit (Thermo Fisher Scientific, 4389986). The primer sets used in quantifying each gene can be found in Table 4.

TRE3G-GFP reporter gene = TRE3G-GFP reporter gene activation in HCT116, dCas9 + MS2-FKBP*x2 (F36V) system, flow cytometry; set-up: fold change, GFP: reference not given here; conditions: FIG. 5A, 10 nM, 48 hrs

CC[C@H](C(=O)N1CCCC[C@H]1C(=O)O[C@H](CCc1ccc(OC)c(OC)c1)c1cccc(OCC(=O)NCCOCCOCCOCCOCCNC(=O)C[C@@H]2N=C(c3ccc(Cl)cc3)c3cc(OC)ccc3-n3c(C)nnc32)c1)c1cc(OC)c(OC)c(OC)c1 [CEM203, (1R)-1-(3-((20-((4S)-6-(4-Chlorophenyl)-8-methoxy-1-methyl-4H-benzo[f][1,2,4]triazolo[4,3-a][1,4]diazepin-4-yl)-2,19-dioxo-6,9,12,15-tetraoxa-3,18-diazaicosyl)oxy)phenyl)-3-(3,4-dimethoxyphenyl) propyl (2S)-1-((S)-2-(3,4,5-trimethoxyphenyl)butanoyl) piperidine-2-carboxylate]
fold change, CXCR4 mRNA (CXCR4 gRNA vs NT gRNA) (CXCR4 [1]; 25 nM): 1.5 fold | fold change, CXCR4 mRNA (CXCR4 gRNA vs NT gRNA) (CXCR4 [1]; 200 nM): 3.5 fold | fold change, CXCR4 mRNA (CEM Treated vs Non-Treated) (CXCR4 [2]; FIG. 2D, CXCR4 gRNA, 1 nM): 2.3 fold | fold change, CXCR4 mRNA (CEM Treated vs Non-Treated) (CXCR4 [2]; FIG. 2D, CXCR4 gRNA, 5 nM): 13.0 fold | fold change, CXCR4 mRNA (CEM Treated vs Non-Treated) (CXCR4 [2]; FIG. 2D, CXCR4 gRNA, 25 nM): 35.9 fold | fold change, CXCR4 mRNA (CEM Treated vs Non-Treated) (CXCR4 [2]; FIG. 2D, CXCR4 gRNA, 50 nM): 54.0 fold | fold change, CXCR4 mRNA (CEM Treated vs Non-Treated) (CXCR4 [2]; FIG. 2D, NT gRNA, 1 nM): 0.98 fold | fold change, CXCR4 mRNA (CEM Treated vs Non-Treated) (CXCR4 [2]; FIG. 2D, NT gRNA, 5 nM): 1.30 fold | fold change, CXCR4 mRNA (CEM Treated vs Non-Treated) (CXCR4 [2]; FIG. 2D, NT gRNA, 25 nM): 2.42 fold | fold change, CXCR4 mRNA (CEM Treated vs Non-Treated) (CXCR4 [2]; FIG. 2D, NT gRNA, 50 nM): 2.57 fold | CXCR4 activation compared to dCas9-p300 (CXCR4 [2]; FIG. 2D, concentrations above 5 nM): higher CXCR4 activation | fold change, CXCR4 mRNA (CXCR4 gRNA vs NT gRNA) (CXCR4 [2]; 24 h): 17.9 fold | fold change, CXCR4 mRNA (CXCR4 gRNA vs NT gRNA) (CXCR4 [2]; 48 h): 19.8 fold | fold change, CXCR4 mRNA (CXCR4 gRNA vs NT gRNA) (CXCR4 [2]; 48 h AP1867 (washout with 20 μM AP1867 after 24 hrs)): 3.6 fold | fold change, CXCR4 mRNA (CXCR4 gRNA vs NT gRNA) (CXCR4 [2]; 48 h wash (media washout after 24 hrs)): 7.7 fold | fold change, CXCR4 mRNA (CXCR4 gRNA vs NT gRNA) (CXCR4 [2]; 72 h): 13.1 fold | fold change, CXCR4 mRNA (CXCR4 gRNA vs NT gRNA) (CXCR4 [2]; 72 h AP1867 (washout with 20 μM AP1867 after 24 hrs)): 1.9 fold | fold change, CXCR4 mRNA (CXCR4 gRNA vs NT gRNA) (CXCR4 [2]; 72 h wash (media washout after 24 hrs)): 5.6 fold | fold change, CXCR4 mRNA (CXCR4 gRNA vs NT gRNA) (CXCR4 [2]; 96 h AP1867 (washout with 20 μM AP1867 after 24 hrs)): 1.2 fold | fold change, CXCR4 mRNA (CXCR4 gRNA vs NT gRNA) (CXCR4 [2]; 96 h wash (media washout after 24 hrs)): 3.3 fold | fold change, CXCR4 mRNA (washout vs AP1867 competition) (CXCR4 [2]; 48 h): 1.5 fold | fold change, CXCR4 mRNA (washout vs AP1867 competition) (CXCR4 [2]; 72 h): 4.2 fold | fold change, CXCR4 mRNA (washout vs AP1867 competition) (CXCR4 [2]; 96 h): 1.7 fold | fold change, CXCR4 mRNA (Compare to 0 h) (CXCR4 [2]; NT gRNA, 12 h): 4.9 fold | fold change, CXCR4 mRNA (Compare to 0 h) (CXCR4 [2]; NT gRNA, 24 h): 2.2 fold | fold change, CXCR4 mRNA (Compare to 0 h) (CXCR4 [2]; NT gRNA, 48 h): 1.1 fold | fold change, CXCR4 mRNA (Compare to 0 h) (CXCR4 [2]; NT gRNA, 48 h AP1867 (washout with 20 μM AP1867 after 24 hrs)): 0.8 fold | fold change, CXCR4 mRNA (Compare to 0 h) (CXCR4 [2]; NT gRNA, 48 h wash (media washout after 24 hrs)): 0.7 fold | fold change, CXCR4 mRNA (Compare to 0 h) (CXCR4 [2]; NT gRNA, 72 h): 1.0 fold | fold change, CXCR4 mRNA (Compare to 0 h) (CXCR4 [2]; NT gRNA, 72 h AP1867 (washout with 20 μM AP1867 after 24 hrs)): 0.6 fold | fold change, CXCR4 mRNA (Compare to 0 h) (CXCR4 [2]; NT gRNA, 72 h wash (media washout after 24 hrs)): 0.8 fold | fold change, CXCR4 mRNA (Compare to 0 h) (CXCR4 [2]; NT gRNA, 96 h): 1.3 fold | fold change, CXCR4 mRNA (Compare to 0 h) (CXCR4 [2]; NT gRNA, 96 h AP1867 (washout with 20 μM AP1867 after 24 hrs)): 0.5 fold | fold change, CXCR4 mRNA (Compare to 0 h) (CXCR4 [2]; NT gRNA, 96 h wash (media washout after 24 hrs)): 0.7 fold | CXCR4 mRNA expression after CEM washout in comparison to cells continuously treated (CXCR4 [2]; FIGS. 3C and 3D, CEM203 50 nM or CEM207 25 nM for 24 hours, then media exchange, all time points): significantly lowered CXCR4 mRNA expression | time point of highest (peak) CXCR4 mRNA activation (CXCR4 [2]; time course 12, 24, 48, 72, 96 hrs, CXCR4 gRNA): 24 h | fold change, GFP (TRE3G-GFP reporter gene; NT gRNA): 0.7 fold | fold change, GFP (TRE3G-GFP reporter gene; TRE3G gRNA): 9.4 fold
